Data reported in US9695155B2, “Herbicidal substituted pyrimidinyloxy benzene compounds” (E. I. DU PONT DE NEMOURS AND COMPANY, priority 2013, dated 2017).

Assays:
[1] = test system: waterhemp; assay: Test C preemergence; format: in vivo, Amaranthus rudis; details: Amaranthus tuberculatus, pre-emergence
Method in brief: (§1)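 Injury was assessed visually against controls 13 to 15 days after application, with 0 meaning no effect and 100 full control; missing entries are shown as a dash. Preemergence sprays hit seeded loam–sand soil, postemergence sprays hit 1- to 4-leaf plants.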

[2] = test system: giant foxtail; assay: Test A preemergence; format: in vivo, Setaria faberii; details: Setaria faberi, pre-emergence, 240 h, 0 to 100 scale where 0 is no effect and 100 is complete control
Method in brief: (§2)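 Scoring: eye-based comparison with untreated controls, 0 for no effect through 100 for complete control, at about day 10. Treatments: directed soil spray preemergence; foliar spray postemergence on 2–10 cm plants at the one- to two-leaf stage. Medium: loam soil with sand.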

[3] = test system: oilseed rape; assay: Test C preemergence; format: in vivo, Brassica napus; details: Brassica napus, pre-emergence
Method in brief: as §1

[4] = test system: barnyardgrass; assay: Test B flooded paddy test; format: in vivo, Echinochloa crus-galli; details: Echinochloa crus-galli; Flood, 250 g ai/ha; 0 to 100 scale where 0 is no effect and 100 is complete control; read-out: Plant response rating, Barnyardgrass
Method in brief: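 Scores from 0 (no effect) to 100 (complete control) are visual comparisons with controls, taken 13 to 15 days after compound was applied into floodwater 3 cm deep around 2-leaf plants.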

[5] = test system: barnyardgrass; assay: Test A postemergence; format: in vivo, Echinochloa crus-galli; details: Echinochloa crus-galli, post-emergence, 240 h, 0 to 100 scale where 0 is no effect and 100 is complete control
Method in brief: as §2

[6] = test system: barnyardgrass; assay: Test C preemergence; format: in vivo, Echinochloa crus-galli; details: Echinochloa crus-galli, pre-emergence
Method in brief: as §1

[7] = test system: velvetleaf; assay: Test C postemergence; format: in vivo, Abutilon theophrasti; details: Abutilon theophrasti, post-emergence
Method in brief: as §1

[8] = test system: soybean; assay: Test C preemergence; format: in vivo, Glycine max; details: Glycine max, pre-emergence
Method in brief: as §1

[9] = test system: chickweed; assay: Test C postemergence; format: in vivo, Stellaria media; details: Stellaria media, post-emergence
Method in brief: as §1

[10] = test system: galium; assay: Test C postemergence; format: in vivo, Galium aparine; details: Galium, post-emergence
Method in brief: as §1

[11] = test system: pigweed; assay: Test A postemergence; format: in vivo, Amaranthus retroflexus; details: Amaranthus retroflexus, post-emergence, 0 to 100 scale where 0 is no effect and 100 is complete control
Method in brief: as §2

[12] = test system: galium; assay: Test C preemergence; format: in vivo, Galium aparine; details: Galium, pre-emergence
Method in brief: as §1

[13] = test system: morningglory; assay: Test C preemergence; format: in vivo, Ipomoea coccinea; details: Ipomoea, pre-emergence
Method in brief: as §1

[14] = test system: johnsongrass; assay: Test C postemergence; format: in vivo, Sorghum halepense; details: Sorghum halepense, post-emergence
Method in brief: as §1

[15] = test system: soybean; assay: Test C postemergence; format: in vivo, Glycine max; details: Glycine max, post-emergence
Method in brief: as §1

FC(F)(F)Sc1cnn(-c2ccccc2Oc2ncc(Cl)cn2)c1 [Compound 132, 5-chloro-2-[2-[4-(trifluoromethylthio)-1H-pyrazol-1-yl]phenoxy]pyrimidine]
pest or weed control at 16 g/ha ([1]; 16 g ai/ha, preemergence, scale 0 to 100 (0 no effect, 100 complete control), read-out: Waterhemp plant response rating): 85%
pest or weed control at 62 g/ha ([1]; 62 g ai/ha, preemergence, scale 0 (no effect) to 100 (complete control), read-out: Waterhemp plant response rating): 100%
pest or weed control at 125 g/ha ([1]; 125 g ai/ha, preemergence, scale 0 (no effect) to 100 (complete control), read-out: Waterhemp plant response rating): 100%
pest or weed control at 31 g/ha ([1]; Preemergence, 31 g ai/ha, scale 0 to 100, 0 no effect, 100 complete control, read-out: Plant response rating, Waterhemp): 98%
pest or weed control at 125 g/ha ([2]; 125 g ai/ha, read-out: Plant response rating, Foxtail, Giant): 90%
pest or weed control at 500 g/ha ([2]; 500 g ai/ha, read-out: Foxtail, Giant plant response rating): 100%
plant injury at 16 g/ha ([3]; 16 g ai/ha, preemergence, scale 0 to 100 (0 no effect, 100 complete control), read-out: Oilseed Rape plant response rating): 20%
plant injury at 62 g/ha ([3]; 62 g ai/ha, preemergence, scale 0 (no effect) to 100 (complete control), read-out: Oilseed Rape plant response rating): 100%
plant injury at 125 g/ha ([3]; 125 g ai/ha, preemergence, scale 0 (no effect) to 100 (complete control), read-out: Oilseed Rape plant response rating): 100%
plant injury at 31 g/ha ([3]; Preemergence, 31 g ai/ha, scale 0 to 100, 0 no effect, 100 complete control, read-out: Plant response rating, Oilseed Rape): 85%
pest or weed control at 250 g/ha [4]: 0%
pest or weed control at 125 g/ha ([5]; 125 g ai/ha, read-out: Barnyardgrass plant response rating): 50%
pest or weed control at 500 g/ha ([5]; 500 g ai/ha, read-out: Plant response rating, Barnyardgrass): 70%
pest or weed control at 16 g/ha ([6]; 16 g ai/ha, preemergence, scale 0 to 100 (0 no effect, 100 complete control), read-out: Barnyardgrass plant response rating): 0%
pest or weed control at 62 g/ha ([6]; 62 g ai/ha, preemergence, scale 0 (no effect) to 100 (complete control), read-out: Barnyardgrass plant response rating): 10%
pest or weed control at 125 g/ha ([6]; 125 g ai/ha, preemergence, scale 0 (no effect) to 100 (complete control), read-out: Barnyardgrass plant response rating): 75%
pest or weed control at 31 g/ha ([6]; Preemergence, 31 g ai/ha, scale 0 to 100, 0 no effect, 100 complete control, read-out: Plant response rating, Barnyardgrass): 0%
pest or weed control at 16 g/ha ([7]; 16 g ai/ha, postemergence, 0 is no effect, 100 is complete control, read-out: Plant response rating (0 to 100), Velvetleaf): 5%
pest or weed control at 125 g/ha ([7]; 125 g ai/ha, postemergence, visual rating, scale 0 to 100 (0 no effect, 100 complete control), read-out: Plant response rating, Velvetleaf): 45%
pest or weed control at 62 g/ha ([7]; Postemergence, 62 g ai/ha, scale 0 to 100 (0 no effect, 100 complete control), read-out: Plant response rating, Velvetleaf): 40%
plant injury at 16 g/ha ([8]; 16 g ai/ha, preemergence, scale 0 to 100 (0 no effect, 100 complete control), read-out: Soybean plant response rating): 0%
plant injury at 62 g/ha ([8]; 62 g ai/ha, preemergence, scale 0 (no effect) to 100 (complete control), read-out: Soybean plant response rating): 5%
plant injury at 125 g/ha ([8]; 125 g ai/ha, preemergence, scale 0 (no effect) to 100 (complete control), read-out: Soybean plant response rating): 55%
plant injury at 31 g/ha ([8]; Preemergence, 31 g ai/ha, scale 0 to 100, 0 no effect, 100 complete control, read-out: Plant response rating, Soybean): 0%
pest or weed control at 16 g/ha ([9]; 16 g ai/ha, postemergence, 0 is no effect, 100 is complete control, read-out: Plant response rating (0 to 100), Chickweed): 10%
pest or weed control at 125 g/ha ([9]; 125 g ai/ha, postemergence, visual rating, scale 0 to 100 (0 no effect, 100 complete control), read-out: Plant response rating, Chickweed): 40%
pest or weed control at 62 g/ha ([9]; Postemergence, 62 g ai/ha, scale 0 to 100 (0 no effect, 100 complete control), read-out: Plant response rating, Chickweed): 30%
pest or weed control at 16 g/ha ([10]; 16 g ai/ha, postemergence, 0 is no effect, 100 is complete control, read-out: Plant response rating (0 to 100), Galium): 50%
pest or weed control at 125 g/ha ([10]; 125 g ai/ha, postemergence, visual rating, scale 0 to 100 (0 no effect, 100 complete control), read-out: Plant response rating, Galium): 70%
pest or weed control at 62 g/ha ([10]; Postemergence, 62 g ai/ha, scale 0 to 100 (0 no effect, 100 complete control), read-out: Plant response rating, Galium): 65%
pest or weed control at 500 g/ha ([11]; 500 g ai/ha, read-out: Plant response rating, Pigweed): 100%
pest or weed control at 125 g/ha ([11]; 240 h, 125 g ai/ha, read-out: Pigweed plant response rating): 100%
pest or weed control at 16 g/ha ([12]; 16 g ai/ha, preemergence, scale 0 to 100 (0 no effect, 100 complete control), read-out: Galium plant response rating): 0%
pest or weed control at 62 g/ha ([12]; 62 g ai/ha, preemergence, scale 0 (no effect) to 100 (complete control), read-out: Galium plant response rating): 90%
pest or weed control at 125 g/ha ([12]; 125 g ai/ha, preemergence, scale 0 (no effect) to 100 (complete control), read-out: Galium plant response rating): 90%
pest or weed control at 31 g/ha ([12]; Preemergence, 31 g ai/ha, scale 0 to 100, 0 no effect, 100 complete control, read-out: Plant response rating, Galium): 0%
pest or weed control at 16 g/ha ([13]; 16 g ai/ha, preemergence, scale 0 to 100 (0 no effect, 100 complete control), read-out: Morningglory plant response rating): 25%
pest or weed control at 62 g/ha ([13]; 62 g ai/ha, preemergence, scale 0 (no effect) to 100 (complete control), read-out: Morningglory plant response rating): 5%
pest or weed control at 125 g/ha ([13]; 125 g ai/ha, preemergence, scale 0 (no effect) to 100 (complete control), read-out: Morningglory plant response rating): 5%
pest or weed control at 31 g/ha ([13]; Preemergence, 31 g ai/ha, scale 0 to 100, 0 no effect, 100 complete control, read-out: Plant response rating, Morningglory): 0%
pest or weed control at 16 g/ha ([14]; 16 g ai/ha, postemergence, 0 is no effect, 100 is complete control, read-out: Plant response rating (0 to 100), Johnsongrass): 5%
pest or weed control at 125 g/ha ([14]; 125 g ai/ha, postemergence, visual rating, scale 0 to 100 (0 no effect, 100 complete control), read-out: Plant response rating, Johnsongrass): 5%
pest or weed control at 62 g/ha ([14]; Postemergence, 62 g ai/ha, scale 0 to 100 (0 no effect, 100 complete control), read-out: Plant response rating, Johnsongrass): 5%
Soybean plant response rating (crop injury, 0-100 scale) at 16 g/ha ([15]; 16 g ai/ha, postemergence, 0 is no effect, 100 is complete control): 20%
Soybean plant response rating (crop injury, 0-100 scale) at 125 g/ha ([15]; 125 g ai/ha, postemergence, visual rating, scale 0 to 100 (0 no effect, 100 complete control), read-out: Plant response rating, Soybean): 50%
Soybean plant response rating (crop injury, 0-100 scale) at 62 g/ha ([15]; Postemergence, 62 g ai/ha, scale 0 to 100 (0 no effect, 100 complete control)): 35%
